Measurements: patent US12005034B2 (ALGOTHERAPEUTIX, priority 2017, dated 2024)

Columns and labels:
TRPV1 = target: T1, TRPV1 (Mus musculus, UniProt Q704Y3); experiment: Calcium mobilization in DRG neurons with TRPV1 antagonist or agonist; format: cell-based
T1 construct: calcium ion mobilization was investigated in primary cultures of mouse DRG neurons; endogenous in cells; host or cells: primary mouse DRG neurons
Method: (§1) For calcium mobilization measurements, 10 DRG cultures (two mice per culture) were washed with Hanks Balanced Salt Solution (HBSS, Thermo Fisher Scientific, Massachusetts, USA), and incubated in HBSS containing 1 μg/ml papain (Sigma Aldrich, Missouri, USA) and L-cysteine (pH 7.4, Sigma Aldrich) for 10 minutes at 37° C. […] Neurons were then mechanically dissociated. […] DRG neurons were incubated with HBSS containing 20 mM Hepes, […] fluo-4 acetoxymethyl (AM) ester (Thermo Fisher Scientific, Waltham, MA USA) and 0.02% pluronic acid for 30 min at 37° C. followed by an additional incubation for 30 min at room temperature. The medium was then discarded and replaced by HBSS. […] The effects of TRP channel agonists and antagonists on amitriptyline-induced calcium ion mobilization were then assessed as follows: neurons were incubated with either an antagonist for TRPV1 (10 μM AMG 9810, Sigma Aldrich) or an antagonist for TRPA1 (HCO30031; […] Sigma Aldrich). Neurons were imaged using an inverted microscope (Zeiss) and a 10×0.5 NA objective. […] Baseline fluorescence was determined for 0 to 10 seconds, and then fluorescence was measured from the 10th to the 65th second after the neurons were incubated with the drugs or controls. […] Variations in fluorescence intensity measured in each neuron were identified using Image J2 software.

TRPA1 = target: T2, TRPA1 (Mus musculus, UniProt Q8BLA8); experiment: Calcium mobilization in DRG neurons with TRPA1 antagonist or agonist; format: cell-based
T2 construct: calcium ion mobilization was investigated in primary cultures of mouse DRG neurons; endogenous in cells; host or cells: primary mouse DRG neurons
T2 sequence (Q8BLA8 whole entry): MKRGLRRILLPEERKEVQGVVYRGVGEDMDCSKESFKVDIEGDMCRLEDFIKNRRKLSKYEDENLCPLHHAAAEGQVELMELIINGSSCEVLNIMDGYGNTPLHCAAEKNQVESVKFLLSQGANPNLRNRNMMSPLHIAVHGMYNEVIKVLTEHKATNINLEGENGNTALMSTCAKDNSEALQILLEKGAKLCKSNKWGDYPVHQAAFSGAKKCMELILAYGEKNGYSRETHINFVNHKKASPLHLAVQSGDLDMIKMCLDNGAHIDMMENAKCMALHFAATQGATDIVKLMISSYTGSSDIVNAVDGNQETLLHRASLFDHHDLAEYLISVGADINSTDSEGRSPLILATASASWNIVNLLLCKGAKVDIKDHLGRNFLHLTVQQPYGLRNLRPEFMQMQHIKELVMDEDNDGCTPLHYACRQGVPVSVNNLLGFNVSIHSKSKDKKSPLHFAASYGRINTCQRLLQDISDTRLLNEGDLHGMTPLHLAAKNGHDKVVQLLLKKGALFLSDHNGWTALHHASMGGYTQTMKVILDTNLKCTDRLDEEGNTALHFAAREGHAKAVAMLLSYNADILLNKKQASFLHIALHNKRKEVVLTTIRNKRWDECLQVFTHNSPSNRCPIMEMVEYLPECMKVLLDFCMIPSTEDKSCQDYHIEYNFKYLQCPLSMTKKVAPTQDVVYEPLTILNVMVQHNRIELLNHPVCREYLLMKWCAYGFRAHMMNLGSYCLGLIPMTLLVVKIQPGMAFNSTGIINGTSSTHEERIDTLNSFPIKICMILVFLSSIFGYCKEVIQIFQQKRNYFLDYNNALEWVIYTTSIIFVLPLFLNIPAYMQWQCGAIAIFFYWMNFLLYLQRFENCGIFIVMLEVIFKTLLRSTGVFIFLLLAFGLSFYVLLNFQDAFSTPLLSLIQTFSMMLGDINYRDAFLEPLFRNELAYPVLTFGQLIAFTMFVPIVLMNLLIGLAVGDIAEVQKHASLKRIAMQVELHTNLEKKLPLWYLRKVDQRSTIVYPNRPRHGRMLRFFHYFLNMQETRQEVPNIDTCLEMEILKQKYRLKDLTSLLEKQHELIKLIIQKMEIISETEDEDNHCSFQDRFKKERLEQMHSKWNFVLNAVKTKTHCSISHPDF
Method: as §1

[1] = Ex vivo study of percutaneous amitriptyline absorption, Frantz cell; format: in vitro ADME, human
Aβ fibers = experiment: Ex vivo single unit recordings, skin-saphenous nerve preparation; format: cell-based, mouse
Method: (§2) Adult male mice were anesthetized with isoflurane (4%) and sacrificed by severing of the carotid arteries. Skin-saphenous nerve preparations and single-fiber recordings were carried out. The saphenous nerve and the skin of the hind limb were carefully dissected and placed in a custom-designed organ chamber containing warm oxygenated synthetic interstitial fluid (SIF). […] The saphenous nerve was placed in an adjacent recording chamber filled with mineral oil, gently teased, and groups of nerve fibers were placed on a gold recording electrode in order to isolate single-unit activity. […] Cambridge Electronic Design Limited, UK). Spikes were discriminated off-line using the Spike2 software (Cambridge Electronic Design Limited, UK) and analyzed individually to avoid false positives. The mechanically evoked activity of single saphenous nerve fibers was first obtained in response to von Frey hair stimulations (Friedrich-Alexander University, Erlangen, Germany). Once a receptive field had been characterized, a patch of skin was isolated from the surrounding bath using a plastic minichamber (inner diameter: 0.8 cm) continuously superfused with buffer at 31° C. The receptive field was then stimulated using von Frey mechanical probes mounted on the arm of a computer-controlled piezoelectric […]® controller; PI, Germany). Conduction velocity was determined by electrically stimulating (Tungsten microelectrode: 10 mm ext/60 mm PI; FHC, USA) identified receptive fields with square wave pulses (0.1-0.5 ms, 7-15 V). Axons were considered to be A-type when the conduction velocity was over 4 m/s. Fibers with a conduction velocity below 1 m/s were classified as C fibers.

C fibers = experiment: as above; format: cell-based, mouse
Method: as §2

Aδ fibers = experiment: as above; format: cell-based; details: Mus musculus, 10 min
Method: (§3) Adult male mice were anesthetized with isoflurane (4%) and sacrificed by severing of the carotid arteries. Skin-saphenous nerve preparations and single-fiber recordings were carried out. The saphenous nerve and the skin of the hind limb were carefully dissected and placed in a custom-designed organ chamber containing warm oxygenated synthetic interstitial fluid (SIF). […] The saphenous nerve was placed in an adjacent recording chamber filled with mineral oil, gently teased, and groups of nerve fibers were placed on a gold recording electrode in order to isolate single-unit activity. […] Cambridge Electronic Design Limited, UK). Spikes were discriminated off-line using the Spike2 software (Cambridge Electronic Design Limited, UK) and analyzed individually to avoid false positives. The mechanically evoked activity of single saphenous nerve fibers was first obtained in response to von Frey hair stimulations (Friedrich-Alexander University, Erlangen, Germany). Once a receptive field had been characterized, a patch of skin was isolated from the surrounding bath using a plastic minichamber (inner diameter: 0.8 cm) continuously superfused with buffer at 31° C. […] Conduction velocity was determined by electrically stimulating (Tungsten microelectrode: 10 mm ext/60 mm PI; FHC, USA) identified receptive fields with square wave pulses (0.1-0.5 ms, 7-15 V). […]

C, Aδ and Aβ fibers = experiment: Ex vivo single unit recordings, skin-saphenous nerve preparation, all fiber types; format: cell-based, mouse
Method: as §3

Nav1.8 = target: T3, Nav1.8 (Mus musculus, UniProt Q6QIY3); experiment: Whole-cell patch-clamp of sodium currents in Nav1.9-/- DRG neurons; format: cell-based; details: holding potential −100 mV, cumulative 1 μM-1 mM; read-out: IC50, block of Nav1.8 current
T3 construct: The Nav1.8 current was recorded in Nav1.9−/− DRG neurons; endogenous in cells; host or cells: primary DRG neurons from Nav1.9-/- mice (C57Bl/6J background)
T3 sequence (Q6QIY3 whole entry): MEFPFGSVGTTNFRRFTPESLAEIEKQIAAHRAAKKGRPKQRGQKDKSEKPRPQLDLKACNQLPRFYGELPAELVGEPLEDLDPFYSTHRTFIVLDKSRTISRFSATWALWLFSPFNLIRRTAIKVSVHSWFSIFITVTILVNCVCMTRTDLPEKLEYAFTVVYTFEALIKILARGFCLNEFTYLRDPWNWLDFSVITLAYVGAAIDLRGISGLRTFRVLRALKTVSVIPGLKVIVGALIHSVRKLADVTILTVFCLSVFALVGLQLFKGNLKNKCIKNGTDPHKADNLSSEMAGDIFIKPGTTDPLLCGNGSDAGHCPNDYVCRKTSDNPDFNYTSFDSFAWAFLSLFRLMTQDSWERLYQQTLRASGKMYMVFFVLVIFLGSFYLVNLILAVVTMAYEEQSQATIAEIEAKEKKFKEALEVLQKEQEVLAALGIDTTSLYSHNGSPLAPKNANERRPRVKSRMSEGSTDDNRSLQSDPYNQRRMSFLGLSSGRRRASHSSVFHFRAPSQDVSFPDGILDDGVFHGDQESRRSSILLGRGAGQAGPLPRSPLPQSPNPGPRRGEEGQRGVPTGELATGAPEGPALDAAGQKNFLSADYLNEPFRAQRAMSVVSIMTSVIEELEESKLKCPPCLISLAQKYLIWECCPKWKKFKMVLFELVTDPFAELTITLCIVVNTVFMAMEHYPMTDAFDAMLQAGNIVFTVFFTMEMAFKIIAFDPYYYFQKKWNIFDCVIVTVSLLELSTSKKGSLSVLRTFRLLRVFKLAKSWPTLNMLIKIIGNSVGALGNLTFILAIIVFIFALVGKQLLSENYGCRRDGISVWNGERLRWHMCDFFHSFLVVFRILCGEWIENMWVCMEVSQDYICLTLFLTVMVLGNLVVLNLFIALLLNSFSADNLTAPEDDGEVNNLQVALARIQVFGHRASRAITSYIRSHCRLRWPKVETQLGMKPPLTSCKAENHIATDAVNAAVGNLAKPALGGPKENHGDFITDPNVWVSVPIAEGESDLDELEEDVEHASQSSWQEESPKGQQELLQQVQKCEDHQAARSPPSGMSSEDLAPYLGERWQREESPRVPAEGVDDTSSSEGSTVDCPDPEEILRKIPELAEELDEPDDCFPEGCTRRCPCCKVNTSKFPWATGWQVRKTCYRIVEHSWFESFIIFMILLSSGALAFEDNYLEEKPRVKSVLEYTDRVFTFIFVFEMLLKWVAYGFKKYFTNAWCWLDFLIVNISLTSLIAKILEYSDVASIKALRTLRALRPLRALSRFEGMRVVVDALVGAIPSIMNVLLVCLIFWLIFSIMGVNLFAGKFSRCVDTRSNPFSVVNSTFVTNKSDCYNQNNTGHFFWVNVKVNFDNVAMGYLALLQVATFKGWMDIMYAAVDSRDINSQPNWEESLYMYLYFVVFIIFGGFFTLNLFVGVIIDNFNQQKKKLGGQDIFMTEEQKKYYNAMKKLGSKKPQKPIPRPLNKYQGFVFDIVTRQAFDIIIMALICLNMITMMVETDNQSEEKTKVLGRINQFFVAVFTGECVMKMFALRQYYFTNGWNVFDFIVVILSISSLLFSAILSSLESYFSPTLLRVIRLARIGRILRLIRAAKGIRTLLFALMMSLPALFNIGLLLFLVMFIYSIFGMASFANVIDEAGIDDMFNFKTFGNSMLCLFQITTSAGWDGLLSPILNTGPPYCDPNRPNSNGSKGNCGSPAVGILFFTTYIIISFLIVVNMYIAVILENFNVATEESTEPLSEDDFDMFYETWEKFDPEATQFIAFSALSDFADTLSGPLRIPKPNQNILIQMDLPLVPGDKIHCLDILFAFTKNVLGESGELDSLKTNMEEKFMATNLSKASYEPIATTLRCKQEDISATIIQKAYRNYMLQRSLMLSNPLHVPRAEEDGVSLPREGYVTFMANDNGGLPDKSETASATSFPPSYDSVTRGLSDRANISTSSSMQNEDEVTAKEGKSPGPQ

hNav1.7 = target: T4, hNav1.7 (Homo sapiens, UniProt Q15858); experiment: Whole-cell patch-clamp of sodium currents in hNav1.7-transfected HEK293T cells; format: cell-based; details: holding potential −80 mV, cumulative 1 μM-1 mM; read-out: IC50, block of Nav1.7 current
T4 construct: expressed in transfected cells; host or cells: HEK293T
Method: Human embryonic kidney 293T (HEK293T) cells were grown in DMEM containing 4.5 mg/ml glucose, 10% FBS, 50 units/ml penicillin and 50 μg/ml streptomycin. Cells were plated onto 12-mm round glass poly-D-lysine-coated coverslips placed in 24-well plates and transfected using lipofectamine 2000 (Invitrogen) according to the manufacturer's instructions. hNav1.7 and GFP plasmids were co-transfected at a concentration of 600 and 100 ng/ml, respectively. Experiments were conducted on cells 24-48 hours post-transfection.
(§4) Patch clamp recordings were made using borosilicate electrodes (Harvard Apparatus, Holliston, Massachusetts, USA) with a resistance of 2-3 MΩ when filled with an intracellular solution consisting of (in mM): 130 CsCl, 10 Hepes, 8 NaCl, 0.4 NaGTP, 4 MgATP, 1 MgCl2, 1 CaCl2 and 10 EGTA (adjusted to pH 7.3 with CsOH, ˜300 mOsm/L). […] Sodium currents were recorded individually. […] The Nav1.8 current was recorded in Nav1.9−/− DRG neurons, whereas the Nav1.9 current was recorded in Nav1.8−/− DRG neurons. […] Fast activating/inactivating TTX-sensitive Na+ currents (Nav1.1 and Nav1.6) in putative non-nociceptors were recorded in wild-type DRG neurons that had large cell membrane capacitance (Cm>60 pF) and lacked any TTX-resistant Na+ current components. […]

Nav1.9 = target: T5, Nav1.9 (Mus musculus, UniProt Q9R053); experiment: Whole-cell patch-clamp of sodium currents in Nav1.8-/- DRG neurons; format: cell-based; details: holding potential −100 mV, cumulative 1 μM-1 mM; read-out: IC50, block of Nav1.9 current
T5 construct: the Nav1.9 current was recorded in Nav1.8−/− DRG neurons; endogenous in cells; host or cells: primary DRG neurons from Nav1.8-/- mice (C57Bl/6J background)
Method: (§5) Cultures of DRG were prepared from male mice anesthetized with isoflurane (4%, Piramal Critical Care) and sacrificed by severing of the carotid arteries. Cultures of dissociated DRG neurons were established from thoracolumbar DRG.
(§6) DRG for whole-cell patch-clamp recordings were incubated in Hanks balance salt solution (Invitrogen, France) containing 2 mg/ml of collagenase IA (Sigma, France) for approximately 45 minutes at 37° C. DRG were washed at least 10 times and then triturated with a fired polished glass Pasteur pipette. […]
as §4

[2] = system: TTX-S Nav channels (Nav1.1 and Nav1.6); experiment: Whole-cell patch-clamp of TTX-sensitive sodium currents in wild-type DRG neurons; format: cell-based, mouse; details: read-out: IC50, block of TTX-S Nav currents; holding potential −80 mV, touch mechanoreceptors
Method: as §5, §6, §4

[3] = system: Nav channels in sensory neurons; experiment: Whole-cell patch-clamp of sodium currents, all Nav channels tested; format: cell-based, mouse; details: 100 μM
Text: Patch clamp recordings were made using borosilicate electrodes (Harvard Apparatus, Holliston, Massachusetts, USA) with a resistance of 2-3 MΩ when filled with an intracellular solution consisting of (in mM): 130 CsCl, 10 Hepes, 8 NaCl, 0.4 NaGTP, 4 MgATP, 1 MgCl2, 1 CaCl2 and 10 EGTA (adjusted to pH 7.3 with CsOH, ˜300 mOsm/L). […] Voltage-gated sodium ion currents were leak-subtracted using a P/6 protocol and voltage errors were minimized using 75-80% series resistance compensation. Cultured cells were perfused with the bath solution at flow rate of 5 mL/min. Recordings were made at room temperature (20-24° C.) using an Axopatch 200B amplifier (Axon Instruments, Boston, Massachusetts, USA), filtered at 1-2 kHz, and digitally sampled at 5-20 kHz. Sodium currents were recorded individually. […]. The Nav1.8 current was recorded in Nav1.9−/− DRG neurons, whereas the Nav1.9 current was recorded in Nav1.8−/− DRG neurons. Nav1.8−/− and Nav1.9−/− mice were generated from a C57B1/6J background. Fast activating/inactivating TTX-sensitive Na+ currents (Nav1.1 and Nav1.6) in putative non-nociceptors were recorded in wild-type DRG neurons that had large cell membrane capacitance (Cm>60 pF) and lacked any TTX-resistant Na+ current components. Nav1.7 recordings were made using the transfected HEK cells.

mouse DRG neurons = experiment: Calcium mobilization in DRG neurons, fluo-4 calcium imaging; format: cell-based
Method: For calcium mobilization measurements, 10 DRG cultures (two mice per culture) were washed with Hanks Balanced Salt Solution (HBSS, Thermo Fisher Scientific, Massachusetts, USA), and incubated in HBSS containing 1 μg/ml papain (Sigma Aldrich, Missouri, USA) and L-cysteine (pH 7.4, Sigma Aldrich) for 10 minutes at 37° C. […] Neurons were then mechanically dissociated. […] DRG neurons were incubated with HBSS containing 20 mM Hepes, […] fluo-4 acetoxymethyl (AM) ester (Thermo Fisher Scientific, Waltham, MA USA) and 0.02% pluronic acid for 30 min at 37° C. followed by an additional incubation for 30 min at room temperature. The medium was then discarded and replaced by HBSS. […] The effects of TRP channel agonists and antagonists on amitriptyline-induced calcium ion mobilization were then assessed as follows: neurons were incubated with either an antagonist for TRPV1 (10 μM AMG 9810, Sigma Aldrich) or an antagonist for TRPA1 (HCO30031; […] Sigma Aldrich). Neurons were imaged using an inverted microscope (Zeiss) and a 10×0.5 NA objective. Images were acquired using a CCD camera (Zeiss) and Zen software (Zeiss). Acquisition parameters were kept constant during each experiment. Kinetic analysis was performed using 85 recordings (one per second). Baseline fluorescence was determined for 0 to 10 seconds, and then fluorescence was measured from the 10th to the 65th second after the neurons were incubated with the drugs or controls. At 65 seconds, 50 mM KCl was added to the cells in order to allow discrimination between neurons and glial cells. Variations in fluorescence intensity measured in each neuron were identified using Image J2 software.

[4] = in vivo; cited from earlier work
neuropathic pain = details: topical, maximum dose used 5%; cited from earlier work
[5] = Mus musculus, 10 min, skin superfusion 10 min, 10-100 μM, read-out: IC50, inhibition of mechanically induced firing
[6] = Mus musculus, 10 min, 100 μM, 10 min application to the skin preparation, read-out: Mean inhibition of evoked firing

T1 sequence (Q704Y3 whole entry): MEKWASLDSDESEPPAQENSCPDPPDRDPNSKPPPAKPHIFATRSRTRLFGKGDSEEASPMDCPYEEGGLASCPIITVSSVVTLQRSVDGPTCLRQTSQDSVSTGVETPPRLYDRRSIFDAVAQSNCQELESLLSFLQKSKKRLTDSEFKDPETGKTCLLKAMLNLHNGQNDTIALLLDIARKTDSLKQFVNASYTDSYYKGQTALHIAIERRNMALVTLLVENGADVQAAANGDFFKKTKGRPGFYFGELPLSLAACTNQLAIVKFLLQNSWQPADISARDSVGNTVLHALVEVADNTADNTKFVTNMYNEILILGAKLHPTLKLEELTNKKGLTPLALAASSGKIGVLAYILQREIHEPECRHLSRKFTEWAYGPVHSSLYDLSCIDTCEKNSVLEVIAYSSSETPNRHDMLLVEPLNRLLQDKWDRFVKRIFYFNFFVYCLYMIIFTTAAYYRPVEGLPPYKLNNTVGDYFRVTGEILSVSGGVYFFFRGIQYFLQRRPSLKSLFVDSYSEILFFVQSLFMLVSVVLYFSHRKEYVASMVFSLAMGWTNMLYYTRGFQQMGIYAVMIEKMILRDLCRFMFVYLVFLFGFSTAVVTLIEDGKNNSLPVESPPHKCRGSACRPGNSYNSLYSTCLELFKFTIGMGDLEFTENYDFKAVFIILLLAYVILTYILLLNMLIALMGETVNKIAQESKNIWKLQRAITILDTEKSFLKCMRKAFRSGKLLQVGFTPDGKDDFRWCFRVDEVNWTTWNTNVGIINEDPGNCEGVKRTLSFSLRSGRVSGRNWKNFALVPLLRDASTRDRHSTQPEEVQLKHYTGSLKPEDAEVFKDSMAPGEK

CC(C)(C)c1ccc(/C=C/C(=O)Nc2ccc3c(c2)OCCO3)cc1 [AMG9810]
effect of antagonist pretreatment on amitriptyline-induced calcium ion mobilization (TRPV1; 5-min pretreatment, 10 μM TRPV1 antagonist): had no effect

CC(C)c1ccc(NC(=O)Cn2cnc3c2c(=O)n(C)c(=O)n3C)cc1 [HC30301]
effect of antagonist pretreatment on amitriptyline-induced calcium ion mobilization (TRPA1; 5-min pretreatment, excess of TRPA1 antagonist): led to inhibition of amitriptyline-induced calcium ion mobilization

CN(C)CCC=C1c2ccccc2CCc2ccccc21 [amitriptyline, Amitriptyline]
amitriptyline bioavailability ([1]; 10 mg of 10% cream per cell, 16 hours): 22.5 µg | amitriptyline present in the epidermis ([1]; compared with dermis, 10% cream, 16 hours): 26% | amitriptyline present in the dermis ([1]; compared with epidermis, 10% cream, 16 hours): Approximately 74% | passage into the bloodstream ([1]; relative to the amount of amitriptyline present in the composition): less than 0.1% | discharge of a low-threshold Aβ mechanoreceptor, representative recording (Aβ fibers; 1 mN stimulus, 100 μM, 5 and 10 min superfusion): inhibition was not complete | reversal of inhibition after washout, Aβ mechanoreceptor (Aβ fibers; 30 min washout after 100 μM): partially reversed | IC50 (Aβ fibers; [5]): ~26 µM | inhibition at 100 µM (Aβ fibers; [6]): 82.5% | firing in a C-type mechanonociceptor fiber, representative recording (C fibers; 11.4 mN stimulation, 100 μM, 10 min superfusion): Full inhibition of firing | IC50 (C fibers; [5]): ~15 µM | inhibition at 100 µM (C fibers; [6]): 95.6% | IC50 (Aδ fibers; skin superfusion 10 min, 10-100 μM, read-out: IC50, inhibition of mechanically induced firing): ~16 µM | inhibition at 100 µM (Aδ fibers; 100 μM, 10 min application to the skin preparation, read-out: Mean inhibition of evoked firing): 87.5% | time of washout to reversal of inhibition (C, Aδ and Aβ fibers): 30 to 35 min | IC50 (Nav1.8): 4.25 ± 0.4 µM | IC50 (hNav1.7): 4.25 ± 0.4 µM | IC50 (Nav1.9): 15.6 ± 0.5 µM | IC50 [2]: 62 ± 0.5 µM | time to reversal of inhibition [3]: ≤ 20 ± 2 min | time to increase in intracellular calcium ions (mouse DRG neurons; 0.1 mM): ≤ 10 s | time to plateau of intracellular calcium ion amplitude curve (mouse DRG neurons; 0.1 mM): around 20 seconds | IC50 (mouse DRG neurons; Mus musculus, DRG neuron, 0.01 mM-1 mM, read-out: IC50, percentage of DRG neurons displaying intracellular calcium mobilization): 50 µM | potentiation of DRG neuron activation induced by TRPA1 agonist (TRPA1; 0.01 mM, 5-min incubation, 50 μM AITC): did not potentiate | potentiation of DRG neuron activation induced by TRPV1 agonist (TRPV1; 0.01 mM, 5-min incubation, 62 nM capsaicin): did not potentiate | plasma half-life [4]: 9 to 36 h | efficacy in the treatment of neuropathic pain (neuropathic pain): not efficacious
